Test results from US10316323B2, “Microorganisms engineered to use unconventional sources of nitrogen” (priority 2013, dated 2019).

Tested on: cyanamide
Test: Utilization of cyanamide in rich YPD medium by S. cerevisiae strains
Format: cell-based
Details: 10 mM cyanamide in YPD medium
Protocol: Optical density of NS100 and NS101 grown in rich YPD medium with 100 μg/mL hydgromycin and with and without 10 mM cyanamide. NS100 and NS101 were grown overnight in YNB medium, and inoculated at 3.33% v/v. […] Data are averages of 3 replicate wells in a 96 well plate; 150 μL per well. 30° C., YPD medium or YPD medium with 10 mM cyanamide. Inoculation was with 5 μL of culture pregrown for 24 hrs in the YNB medium with urea as nitrogen source.

N#CN [cyanamide]
effect of cyanamide on microbial growth: act as a deterrent for microbial growth
